In brackets after ≈: the same amount, converted by molar mass. Like-named read-outs stand apart in the source and are kept apart here.
Experiments:
Format in all cases: cell-based
[1] = tested on: Aspergillus niger; assay: Agar-plate minimum inhibitory concentration (Example 12); conditions: agar, 72-120 hours, read-out: Minimum Inhibitory Concentration
Procedure: (§1) The test compound was added to molten agar as a solution (when conveniently soluble in a solvent such as dimethylformamide) or a suspension forming a mixture having a concentration of 0.05 percent (500 ppm). The mixture was stirred and poured into plates to harden. When hardened, the plates were inoculated with various bacteria and fungi. The bacteria-inoculated plates were incubated at 37° C. for 24 hours, while the fungi-inoculated plates were incubated for about 72-120 hours. Following incubation, the plates were examined for growth or inhibition of the respective organisms.
(§2) After the initial readings, compounds showing sufficient activity were re-tested at various concentrations to determine the minimum inhibitory concentration (in ppm) of the compounds of the invention against the various bacteria and fungi tested.

[2] = tested on: Bacillus subtilis; assay: as above; conditions: agar, 37° C., 24 hours, read-out: Minimum Inhibitory Concentration
Procedure: as §1, §2

[3] = tested on: Candida albicans; assay: as above; conditions: agar, 72-120 hours, read-out: Minimum Inhibitory Concentration
Procedure: as §1, §2

[4] = tested on: Candida pelliculosa; assay: as above; conditions: Hansenula anomala; Candida pelliculosa; agar, 72-120 hours; read-out: Minimum Inhibitory Concentration
Procedure: as §1, §2

[5] = tested on: Ceratocystis ips; assay: as above; conditions: Ceratocystis ips; agar, 72-120 hours; read-out: Minimum Inhibitory Concentration
Procedure: as §1, §2

[6] = tested on: Salmonella typhosa; assay: as above; conditions: Salmonella enterica; Salmonella typhosa; agar, 37° C., 24 hours; read-out: Minimum Inhibitory Concentration
Procedure: as §1, §2

[7] = tested on: Streptococcus mutans; assay: as above; conditions: agar, 37° C., 24 hours, read-out: Minimum Inhibitory Concentration
Procedure: as §1, §2

[8] = tested on: Trichophyton mentagrophytes; assay: as above; conditions: agar, 72-120 hours, read-out: Minimum Inhibitory Concentration
Procedure: as §1, §2

[9] = tested on: Enterobacter aerogenes ATCC 13048; assay: Minimum inhibitory concentration, urinary tract organisms (Example 13); conditions: Klebsiella aerogenes
Procedure: as §1, §2
(§3) Following a procedure substantially the same as that described in Example 12, the minimum inhibitory concentration for the compounds described herein was determined for various organisms representative of those commonly associated with urinary tract infections.
(§4) The organisms used in this procedure and the abbreviations designated in Table 3 are as follows: […]

[10] = tested on: Escherichia coli ATCC 11229; assay: as above
Procedure: as §1, §2, §3, §4

[11] = tested on: Escherichia coli ATCC 25922; assay: as above
Procedure: as §1, §2, §3, §4

[12] = tested on: Escherichia coli ATCC 4157; assay: as above
Procedure: as §1, §2, §3, §4

[13] = tested on: Escherichia coli ATCC 9723; assay: as above
Procedure: as §1, §2, §3, §4

[14] = tested on: Klebsiella pneumoniae ATCC 23357; assay: as above
Procedure: as §1, §2, §3, §4

[15] = tested on: Klebsiella pneumoniae M-1; assay: as above
Procedure: as §1, §2, §3, §4

[16] = tested on: Klebsiella pneumoniae M-2; assay: as above
Procedure: as §1, §2, §3, §4

[17] = tested on: Klebsiella pneumoniae M-6; assay: as above
Procedure: as §1, §2, §3, §4

[18] = tested on: Proteus mirabilis 470/1; assay: as above
Procedure: as §1, §2, §3, §4

[19] = tested on: Pseudomonas aeruginosa ATCC 10145; assay: as above
Procedure: as §1, §2, §3, §4

[20] = tested on: Pseudomonas aeruginosa ATCC 27853; assay: as above
Procedure: as §1, §2, §3, §4

[21] = tested on: Pseudomonas aeruginosa ATCC 7700; assay: as above
Procedure: as §1, §2, §3, §4

[22] = tested on: Pseudomonas aeruginosa PRD-10; assay: as above
Procedure: as §1, §2, §3, §4

[23] = tested on: Serratia marcescens M-1; assay: as above
Procedure: as §1, §2, §3, §4

[24] = tested on: Staphylococcus aureus ATCC 25923; assay: as above
Procedure: as §1, §2, §3, §4

[25] = ATCC13048, Ea 13048, read-out: Minimum Inhibitory Concentration
[26] = ATCC11229, Ec 11229, read-out: Minimum Inhibitory Concentration
[27] = ATCC25922, Ec 25922, read-out: Minimum Inhibitory Concentration
[28] = ATCC4157, Ec 4157, read-out: Minimum Inhibitory Concentration
[29] = ATCC9723, Ec 9723, read-out: Minimum Inhibitory Concentration
[30] = ATCC23357, Kp 23357, read-out: Minimum Inhibitory Concentration
[31] = M1, Kp M-1, read-out: Minimum Inhibitory Concentration
[32] = M2, Kp M-2, read-out: Minimum Inhibitory Concentration
[33] = M6, Kp M-6, read-out: Minimum Inhibitory Concentration
[34] = Pm 470/1, read-out: Minimum Inhibitory Concentration
[35] = ATCC10145, Pa 10145, read-out: Minimum Inhibitory Concentration
[36] = ATCC27853, Pa 27853, read-out: Minimum Inhibitory Concentration
[37] = ATCC7700, Pa 7700, read-out: Minimum Inhibitory Concentration
[38] = PRD10, Pa PRD-10, read-out: Minimum Inhibitory Concentration
[39] = M1, Sr M-1, read-out: Minimum Inhibitory Concentration
[40] = ATCC25923, Sa 25923, read-out: Minimum Inhibitory Concentration
[41] = M1, read-out: Minimum Inhibitory Concentration

SMILES	MIC [1] [µg/mL]	MIC [2] [µg/mL]	MIC [3] [µg/mL]	MIC [4] [µg/mL]	MIC [5] [µg/mL]	MIC [9, 25] [µg/mL]	MIC [10, 26] [µg/mL]	MIC [11, 27] [µg/mL]	MIC [12, 28] [µg/mL]	MIC [13, 29] [µg/mL]	MIC [14, 30] [µg/mL]	MIC [15, 31] [µg/mL]	MIC [16, 32] [µg/mL]	MIC [17, 33] [µg/mL]	MIC [18, 34] [µg/mL]	MIC [20, 36] [µg/mL]	MIC [21, 37] [µg/mL]	MIC [22, 38] [µg/mL]	MIC [23, 39] [µg/mL]	MIC [24, 40] [µg/mL]	also measured
CCOC(=O)CNC(=O)Oc1ccc([N+](=O)[O-])c2cccnc12 [Example 5, Ethyl N-(((5-nitro-8-quinolinyl)oxy)carbonyl)glycinate]	50 (≈ 157 µM)	5 (≈ 15.7 µM)	50 (≈ 157 µM)	50 (≈ 157 µM)	100 (≈ 313 µM)	25 (≈ 78.3 µM)	25 (≈ 78.3 µM)	10 (≈ 31.3 µM)	25 (≈ 78.3 µM)	25 (≈ 78.3 µM)	10 (≈ 31.3 µM)	25 (≈ 78.3 µM)	25 (≈ 78.3 µM)	25 (≈ 78.3 µM)	10 (≈ 31.3 µM)	75 (≈ 235 µM)	100 (≈ 313 µM)	50 (≈ 157 µM)	50 (≈ 157 µM)	25 (≈ 78.3 µM)	MIC [6]: 5 µg/mL (≈ 15.7 µM); MIC [7]: > 500 µg/mL; MIC [8]: 50 µg/mL (≈ 157 µM); MIC [19, 35]: 25 µg/mL (≈ 78.3 µM)
O=C(NCCCl)Oc1ccc(Cl)c2cccnc12 [Example 6, 5-Chloro-8-quinolinyl N-(2-chloroethyl)carbamate]						500 (≈ 1750 µM)	75 (≈ 263 µM)	75 (≈ 263 µM)	250 (≈ 877 µM)	50 (≈ 175 µM)	250 (≈ 877 µM)	250 (≈ 877 µM)	500 (≈ 1750 µM)	250 (≈ 877 µM)	250 (≈ 877 µM)	500 (≈ 1750 µM)	500 (≈ 1750 µM)	500 (≈ 1750 µM)	500 (≈ 1750 µM)	< 5	
CCOC(=O)CNC(=O)Oc1ccc(Cl)c2cccnc12.CS(=O)(=O)O [Example 7, Ethyl N-(((5-chloro-8quinolinyl)oxy)carbonyl)glycinate methanesulfonic acid salt]	50	5	50	50	50	75	50	25	50	50	75	75	75	50	75	250	250	250	100	< 5	MIC [6]: 10 µg/mL; MIC [7]: 500 µg/mL; MIC [8]: 10 µg/mL; MIC [19, 35]: 75 µg/mL
CCOC(=O)CNC(=O)Oc1ccc(Cl)c2cccnc12.Cl [Example 8, Ethyl N-(((5-chloro-8-quinolinyl)oxy)carbonyl)glycinate hydrochloride salt]	10	1	10	10	50	50	25	25	25	25	50	50	50	25	50	100	100	100	75	10	MIC [6]: 50 µg/mL; MIC [7]: > 500 µg/mL; MIC [8]: 10 µg/mL; MIC [19, 35]: 75 µg/mL
CNC(=O)Oc1c(Br)cc(Br)c2cccnc12 [Example 11, 5,7-Dibromo-8-quinolinyl N-methylcarbamate]																					MIC ([9]; ATCC13048, read-out: Minimum Inhibitory Concentration): 25 µg/mL (≈ 69.4 µM); MIC ([10]; ATCC11229, read-out: Minimum Inhibitory Concentration): 25 µg/mL (≈ 69.4 µM); MIC ([11]; ATCC25922, read-out: Minimum Inhibitory Concentration): 25 µg/mL (≈ 69.4 µM); MIC ([12]; ATCC4157, read-out: Minimum Inhibitory Concentration): 25 µg/mL (≈ 69.4 µM); MIC ([13]; ATCC9723, read-out: Minimum Inhibitory Concentration): 25 µg/mL (≈ 69.4 µM); MIC ([14]; ATCC23357, read-out: Minimum Inhibitory Concentration): 25 µg/mL (≈ 69.4 µM); MIC [15, 41]: 25 µg/mL (≈ 69.4 µM); MIC ([16]; M2, read-out: Minimum Inhibitory Concentration): 25 µg/mL (≈ 69.4 µM); MIC ([17]; M6, read-out: Minimum Inhibitory Concentration): 25 µg/mL (≈ 69.4 µM); MIC ([18]; 470/1, read-out: Minimum Inhibitory Concentration): 25 µg/mL (≈ 69.4 µM); MIC ([19]; ATCC10145, read-out: Minimum Inhibitory Concentration): 25 µg/mL (≈ 69.4 µM); MIC ([20]; ATCC27853, read-out: Minimum Inhibitory Concentration): 100 µg/mL (≈ 278 µM); MIC ([21]; ATCC7700, read-out: Minimum Inhibitory Concentration): 100 µg/mL (≈ 278 µM); MIC ([22]; PRD10, read-out: Minimum Inhibitory Concentration): 100 µg/mL (≈ 278 µM); MIC [23, 41]: 50 µg/mL (≈ 139 µM); MIC ([24]; ATCC25923, read-out: Minimum Inhibitory Concentration): 25 µg/mL (≈ 69.4 µM)

From patent US4472404A, “8-Quinolinyl carbamates and their use as urinary tract antimicrobials” (priority 1982, dated 1984)
